Earlier results as cited in patent US20140051733A1, “FEBUXOSTAT PHARMACEUTICAL COMPOSITIONS” (Dr. Reddy's Laboratories Ltd., priority 2012, published 2014).
Like-named read-outs stand apart in the source and are kept apart here.

What was measured:
[1] = Class 2 = low solubility, high permeability

For `Cc1nc(-c2ccc(OCC(C)C)c(C#N)c2)sc1C(=O)O` [Febuxostat, 2-[3-cyano-4-(2-methylpropoxy)phenyl]-4-methylthiazole-5-carboxylic acid], the solubility (in acetonitrile) is listed as “slightly soluble”, the solubility (in dimethylformamide) is listed as “freely soluble” and the solubility (in dimethylsulfoxide) is listed as “soluble”. The solubility (in ethanol) was “sparingly soluble”, the solubility (in methanol) was “slightly soluble” and the solubility (in water) was “practically insoluble”. For the same compound, the “Biopharmaceutics Classification System class” value [1] was “Class 2”.
